From US8962608B2, “Cycloalkylnitrile pyrazole carboxamides as janus kinase inhibitors” (Merck Sharp & Dohme Corp., priority 2011, dated 2015)

Tests used:
[1] = target: JAK2 (recombinant purified GST-tagged catalytic domain) (Homo sapiens (Human), UniProt O60674); assay: biochemical;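 also: biochemical JAK kinase assay with HTRF detection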
[2] = target: JAK1 (recombinant purified GST-tagged catalytic domain) (Homo sapiens (Human), UniProt P23458); assay: biochemical;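 also: biochemical assay with HTRF read-out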
Sequence of JAK1 (recombinant purified GST-tagged catalytic domain) (P23458 875-1153): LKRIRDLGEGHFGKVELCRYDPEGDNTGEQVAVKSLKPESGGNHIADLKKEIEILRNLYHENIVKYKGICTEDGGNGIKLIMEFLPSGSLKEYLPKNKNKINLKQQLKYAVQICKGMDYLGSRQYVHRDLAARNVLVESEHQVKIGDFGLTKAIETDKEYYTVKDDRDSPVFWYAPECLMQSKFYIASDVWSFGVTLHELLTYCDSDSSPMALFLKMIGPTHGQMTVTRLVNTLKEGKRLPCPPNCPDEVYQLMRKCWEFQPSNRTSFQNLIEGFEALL

Sequence of JAK2 (recombinant purified GST-tagged catalytic domain) (O60674 849-1124): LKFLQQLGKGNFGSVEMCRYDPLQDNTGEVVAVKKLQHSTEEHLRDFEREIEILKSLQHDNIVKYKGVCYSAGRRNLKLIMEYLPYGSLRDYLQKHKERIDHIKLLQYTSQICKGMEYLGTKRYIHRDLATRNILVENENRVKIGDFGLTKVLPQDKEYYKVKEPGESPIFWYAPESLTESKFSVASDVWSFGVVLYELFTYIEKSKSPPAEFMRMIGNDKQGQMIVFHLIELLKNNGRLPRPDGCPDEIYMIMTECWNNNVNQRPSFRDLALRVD

| Compound | IC50 [1] | IC50 [2] |
| --- | --- | --- |
| N#C[C@H]1CCC[C@@H](O)C1n1cc(C(N)=O)c(Nc2ccccc2)n1 (mixture of isomers) [Example 2-6, 1-[(1R,2S,6R and 1S,2R,6S)-2-cyano-6-hydroxycyclohexyl]-3-(phenylamino)-1H-pyrazole-4-carboxamide] | 1000 nM | 370 nM |
| N#C[C@H]1CCCC[C@@H]1n1cc(C(N)=O)c(Nc2cnc3c(c2)CNC3=O)n1 (single isomer, unassigned) [Example 17-76, 1-[(1R,2R or 1S,2S)-2-cyanocyclohexyl]-3-[(7-oxo-6,7-dihydro-5H-pyrrolo[3,4-b]pyridin-3-yl)amino]-1H-pyrazole-4-carboxamide] | 7 nM | 0.55 nM |
| N#C[C@@H]1CCCC[C@H]1n1cc(C(N)=O)c(Nc2ccc(S(=O)(=O)N3CCC(Cc4ccccc4)CC3)cc2)n1 (single isomer, unassigned) [Example 17-69, 3-({4-[(4-benzylpiperidin-1-yl)sulfonyl]phenyl}amino)-1-[(1R,2R or 1S,2S)-2-cyanocyclohexyl]-1H-pyrazole-4-carboxamide] | 67 nM | 30 nM |
| N#Cc1ncc(Nc2nn([C@H]3CCCC[C@@H]3C#N)cc2C(N)=O)cc1F (single isomer, unassigned) [Example 17-79, 1-[(1R,2R or 1S,2S)-2-cyanocyclohexyl]-3-[(6-cyano-5-fluoropyridin-3-yl)amino]-1H-pyrazole-4-carboxamide] | 40 nM | 7 nM |
| N#C[C@H]1CCCC[C@@H]1n1cc(C(N)=O)c(Nc2ccc(S(=O)(=O)NCc3ccccc3)cc2)n1 (single isomer, unassigned) [Example 17-83, 3-{[4-(benzylsulfamoyl)phenyl]amino}-1-[(1R,2R or 1S,2S)-2-cyanocyclohexyl]-1H-pyrazole-4-carboxamide] | 0.9 nM | 0.2 nM |
| N#C[C@H]1C[C@H](O)CC[C@@H]1n1cc(C(N)=O)c(Nc2ccc(C(F)(F)F)cc2)n1 (single isomer, unassigned) [Example 25-5, 1-[(1S,2S,4R or 1R,2R,4S)-2-cyano-4-hydroxycyclohexyl]-3-{[4-(trifluoromethyl)phenyl]amino}-1H-pyrazole-4-carboxamide] | 10 nM | 1 nM |
| N#C[C@H]1C[C@H](O)CC[C@@H]1n1cc(C(N)=O)c(Nc2ccc(C(F)(F)F)nc2)n1 (single isomer, unassigned) [Example 25-10, 1-[(1S,2S,4R or 1R,2R,4S)-2-cyano-4-hydroxycyclohexyl]-3-{[6-(trifluoromethyl)pyridin-3-yl]amino}-1H-pyrazole-4-carboxamide] | 17 nM | 4 nM |
| N#C[C@H]1CCCC[C@@H]1n1cc(C(N)=O)c(Nc2ccnc(C(F)(F)F)c2)n1 (racemic) [Example 17-3, 1-[(1S,2S and 1R,2R)-2-Cyanocyclohexyl]-3-{[2-(trifluoromethyl)pyridin-4-yl]amino}-1H-pyrazole-4-carboxamide] | 123 nM | 19 nM |

Continued, values first:

| IC50 [1] | IC50 [2] | Compound |
| --- | --- | --- |
| 3 nM | 0.7 nM | CC(C)(c1ccc(Nc2nn([C@H]3CC[C@H](O)C[C@@H]3C#N)cc2C(N)=O)cc1)C(O)C(F)(F)F (single isomer, unassigned) [Example 33-16, 1-[(1S,2S,4S or 1R,2R,4R)-2-cyano-4-hydroxycyclohexyl]-3-{[4-(3,3,3-trifluoro-(2R or 2S)-hydroxy-1,1-dimethylpropyl)phenyl]amino}-1H-pyrazole-4-carboxamide] |
| 88 nM | 7 nM | N#C[C@H]1C[C@H](OC(=O)NC2CCCCC2)CCC1n1cc(C(N)=O)c(Nc2ccc(F)cc2)n1 (mixture of isomers) [Example 34-5, (1R,3S,4S and 1S,3R,4R)-4-{4-carbamoyl-3-[(4-fluorophenyl)amino]-1H-pyrazol-1-yl}-3-cyanocyclohexyl cyclohexylcarbamate] |
| 77 nM | 3 nM | CC(C)(O)C1CN([C@H]2CC[C@H](n3cc(C(N)=O)c(Nc4ccc(C(F)(F)F)cc4)n3)[C@@H](C#N)C2)C1 (single isomer, unassigned) [Example 28-28, 1-{(1S,2S,4S or 1R,2R,4R)-2-cyano-4-[3-(1-hydroxy-1-methylethyl)azetidin-1-yl]cyclohexyl}-3-{[4-(trifluoromethyl)phenyl]amino}-1H-pyrazole-4-carboxamide] |
| 1050 nM | 51 nM | N#C[C@H]1C[C@H](NC2CCC2)CC[C@@H]1n1cc(C(N)=O)c(Nc2ccc(C(F)(F)F)cc2)n1 (single isomer, unassigned) [Example 30-14, 1-[(1S,2S,4R or 1R,2R,4S)-2-cyano-4-(cyclobutylamino)cyclohexyl]-3-{[4-(trifluoro-methyl)phenyl]amino}-1H-pyrazole-4-carboxamide] |
| 5 nM | 0.5 nM | N#C[C@H]1C[C@@H](O)CC[C@@H]1n1cc(C(N)=O)c(Nc2ccc(OC(F)(F)F)cc2)n1 (single isomer, unassigned) [Example 33-1, 1-((1S,2S,4S or 1R,2R,4R)-2-Cyano-4-hydroxycyclohexyl)-3-((4-(trifluoromethoxy)phenyl)amino)-1H-pyrazole-4-carboxamide] |
| 122 nM | 1 nM | N#C[C@H]1C[C@H](N2CC3(CCC3)C2)CC[C@@H]1n1cc(C(N)=O)c(Nc2ccnc(F)c2)n1 (single isomer, unassigned) [Example 28-143, 1-[(1S,2S,4R or 1R,2R,4S)-4-(2-azaspiro[3.3]hept-2-yl)-2-cyanocyclohexyl]-3-[(2-fluoropyridin-4-yl)amino]-1H-pyrazole-4-carboxamide] |
| 32 nM | 0.65 nM | CN(C)[C@H]1CC[C@H](n2cc(C(N)=O)c(Nc3ccccc3)n2)[C@@H](C#N)C1 (single isomer, unassigned) [Example 28-135, 1-[(1S,2S,4S or 1R,2R,4R)-2-cyano-4-(dimethylamino)cyclohexyl]-3-(phenylamino)-1H-pyrazole-4-carboxamide] |
| 20 nM | 0.6 nM | N#C[C@H]1C[C@@H](N2C[C@@H]3[C@@H](CO)[C@@H]3C2)CC[C@@H]1n1cc(C(N)=O)c(Nc2ccc(C(F)(F)F)cc2)n1 (single isomer, unassigned) [Example 28-34, 1-{(1S,2S,4S or 1R,2R,4R)-2-cyano-4-[(1R,5S,6S or 1S,5R,6R)-6-(hydroxymethyl)-3-azabicyclo[3.1.0]hex-3-yl]cyclohexyl}-3-{[4-(trifluoromethyl)phenyl]amino}-1H-pyrazole-4-carboxamide] |
| 315 nM | 30 nM | CC(C)(O)C1CN(C(=O)[C@H]2CC[C@H](n3cc(C(N)=O)c(Nc4ccc(Cl)cc4)n3)[C@@H](C#N)C2)C1 (single isomer, unassigned) [Example 35-9, 3-[(4-chlorophenyl)amino]-1-[(1S,2S,4S or 1R,2R,4R)-2-cyano-4-{[3-(1-hydroxy-1-methylethyl)azetidin-1-yl]carbonyl}cyclohexyl}-1H-pyrazole-4-carboxamide] |
| 39 nM | 0.75 nM | N#C[C@H]1C[C@@H](N2CCC2)CC[C@@H]1n1cc(C(N)=O)c(Nc2ccccc2)n1 (single isomer, unassigned) [Example 28-4, 1-((1R,2R,4R or 1S,2S,4S)-4-(Azetidin-1-yl)-2-cyanocyclohexyl)-3-(phenylamino)-1H-pyrazole-4-carboxamide] |
| 24 nM | 2 nM | CC1(N[C@H]2CCC(n3cc(C(N)=O)c(Nc4ccccc4)n3)[C@@H](C#N)C2)CC1 (single isomer, unassigned) [Example 28-216, 1-{(1S,2S,4S or 1R,2R,4R)-2-cyano-4-[(1-methylcyclopropyl)amino]cyclo-hexyl}-3-(phenylamino)-1H-pyrazole-4-carboxamide] |
| 164 nM | 5 nM | N#C[C@H]1C[C@@H](OC(=O)NC2CCCCC2)CCC1n1cc(C(N)=O)c(Nc2ccc(F)cc2)n1 (mixture of isomers) [Example 34-2, (1S,3S,4S and 1R,3R,4R)-4-{4-carbamoyl-3-[(4-fluorophenyl)amino]-1H-pyrazol-1-yl}-3-cyanocyclohexyl cyclohexylcarbamate] |
| 40 nM | 2 nM | N#C[C@H]1C[C@H](N2CCC2)CC[C@@H]1n1cc(C(N)=O)c(Nc2ccc(OC(F)(F)F)cc2)n1 (single isomer, unassigned) [Example 28-70, 1-[(1S,2S,4R or 1R,2R,4S)-4-azetidin-1-yl-2-cyanocyclohexyl]-3-{[4-(trifluoromethoxy)phenyl]amino}-1H-pyrazole-4-carboxamide] |
| 665 nM | 21 nM | N#C[C@@H]1C[C@@H](NC2CC3(CCCC3)C2)CC[C@H]1n1cc(C(N)=O)c(Nc2ccc(C(F)(F)F)cc2)n1 (single isomer, unassigned) [Example 30-5, 1-[(1R,2R,4S or 1S,2S,4R)-2-cyano-4-(spiro[3.4]oct-2-ylamino)cyclohexyl]-3-{[4-(trifluoromethyl)phenyl]amino}-1H-pyrazole-4-carboxamide] |
| 104 nM | 0.9 nM | C[C@H](NC1CC[C@H](n2cc(C(N)=O)c(Nc3ccc(C(F)(F)F)cc3)n2)[C@@H](C#N)C1)C1CC1 (single isomer, unassigned) [Example 28-191, 1-[(1S,2S or 1R,2R)-2-cyano-4-{[(1S)-1-cyclopropylethyl]amino}cyclo-hexyl]-3-{[4-(trifluoromethyl)phenyl]amino}-1H-pyrazole-4-carboxamide] |
| 64 nM | 3 nM | N#C[C@H]1C[C@@H](NCC2CC2)CC[C@@H]1n1cc(C(N)=O)c(Nc2ccc(C(F)(F)F)cc2)n1 (single isomer, unassigned) [Example 28-10, 1-{(1S,2S,4S or 1R,2R,4R)-2-cyano-4-[(cyclopropyl-methyl)amino]cyclohexyl}-3-{[4-(trifluoromethyl)phenyl]amino}-1H-pyrazole-4-carboxamide] |
| 172 nM | 21 nM | N#C[C@H]1C[C@@H](C(=O)NC2CC(F)(F)C2)CC[C@@H]1n1cc(C(N)=O)c(Nc2ccc(Cl)cc2)n1 (single isomer, unassigned) [Example 35-20, 3-[(4-chlorophenyl)amino]-1-{(1S,2S,4S or 1R,2R,4R)-2-cyano-4-[(3,3-difluorocyclobutyl)carbamoyl]cyclohexyl}-1H-pyrazole-4-carboxamide] |
